Test results published in US8778966B2, “Quinolinone derivatives as PARP and tank inhibitors” (Janssen Pharmaceutica, NV, priority 2007, dated 2014).

How the values were obtained:
[1] = test system: PC3 cells; assay: EB1 Comet (microtubule disruption) assay; type: cell-based, human; conditions: 1 hour treatment; for minimal effective concentration: Homo sapiens, PC-3, 1 h, read-out: EB1 pLAC (converted)
Procedure, shortened: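 Readout is loss of Eb1 plus-end foci, scored by immunofluorescence microscopy, in PC3 cells after 1 h compound treatment at 37 °C with 0.6% final DMSO. LAC is defined as the lowest concentration leaving at least 50% of cells without Eb1 foci.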

[2] = target: T1, TANK-2 enzyme (Homo sapiens, UniProt Q9H2K2); assay: In vitro Scintillation Proximity Assay (SPA) for TANK-2 inhibitory activity; type: biochemical; conditions: read-out: in vitro SPA assay TANK-2 pIC50 (converted)
T1 construct: made in house
T1 sequence (Q9H2K2 1-1166): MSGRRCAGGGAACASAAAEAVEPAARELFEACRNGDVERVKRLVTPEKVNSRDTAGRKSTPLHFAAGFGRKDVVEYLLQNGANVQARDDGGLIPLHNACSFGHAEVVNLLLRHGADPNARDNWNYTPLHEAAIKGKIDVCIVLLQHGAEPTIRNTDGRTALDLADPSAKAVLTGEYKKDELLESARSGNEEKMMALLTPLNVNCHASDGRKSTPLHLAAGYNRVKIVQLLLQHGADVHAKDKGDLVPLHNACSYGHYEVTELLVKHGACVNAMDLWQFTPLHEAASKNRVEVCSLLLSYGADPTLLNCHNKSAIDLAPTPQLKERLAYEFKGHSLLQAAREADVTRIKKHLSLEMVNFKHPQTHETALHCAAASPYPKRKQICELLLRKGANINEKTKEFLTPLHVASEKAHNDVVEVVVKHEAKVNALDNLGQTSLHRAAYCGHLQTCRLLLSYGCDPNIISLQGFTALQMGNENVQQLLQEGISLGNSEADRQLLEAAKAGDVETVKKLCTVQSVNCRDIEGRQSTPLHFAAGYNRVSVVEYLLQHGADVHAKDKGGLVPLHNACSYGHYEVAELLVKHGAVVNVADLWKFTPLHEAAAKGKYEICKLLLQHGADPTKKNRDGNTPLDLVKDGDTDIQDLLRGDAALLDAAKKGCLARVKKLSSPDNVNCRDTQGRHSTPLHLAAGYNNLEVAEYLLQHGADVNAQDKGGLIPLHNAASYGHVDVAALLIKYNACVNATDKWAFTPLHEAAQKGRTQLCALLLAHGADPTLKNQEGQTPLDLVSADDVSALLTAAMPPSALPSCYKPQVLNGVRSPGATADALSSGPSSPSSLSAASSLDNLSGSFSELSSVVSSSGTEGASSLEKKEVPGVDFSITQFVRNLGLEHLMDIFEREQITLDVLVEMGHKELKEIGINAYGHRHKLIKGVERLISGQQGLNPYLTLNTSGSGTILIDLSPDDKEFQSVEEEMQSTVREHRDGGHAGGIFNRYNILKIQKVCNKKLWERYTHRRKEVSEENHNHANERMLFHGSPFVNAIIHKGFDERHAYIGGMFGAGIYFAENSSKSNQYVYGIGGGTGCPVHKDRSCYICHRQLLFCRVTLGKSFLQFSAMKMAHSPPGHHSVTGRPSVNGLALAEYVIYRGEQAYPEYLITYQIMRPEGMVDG
Procedure, shortened: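 Results are pIC50 values, with IC50 interpolated linearly around 50% of blank-subtracted control cpm. They come from a scintillation proximity read of TANK-2 (8 μg/ml) self-modification with [3H]-NAD+/NAD, incubated 120 min at room temperature in pH 7.4 Tris buffer containing MgCl2 and DTT. Compounds were first screened at 10^−5 M.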

SMILES | IC50 [2] [nM] | minimal effective concentration [1] [µM] | EB1 pLAC [1]
CCc1cc2ccc(C(C)(C#N)Cc3cccc(-c4cnn(C)c4)c3)cc2[nH]c1=O (stereo not drawn) [Compound 17] | 50.1 | 3.16 | –
CCc1cc2ccc(C(C)(C#N)Cc3cccc(-c4ccccc4)c3)cc2[nH]c1=O (stereo not drawn) [Compound 18] | 251 | 1 | –
CCc1cc2ccc(C(C)(C#N)Cc3cccc(I)c3)cc2[nH]c1=O (stereo not drawn) [Compound 19] | 158 | 0.316 | –
CCc1cc2ccc(C(C)(C#N)Cc3cccc(N(C)C)c3)cc2[nH]c1=O (stereo not drawn) [Compound 20] | 63.1 | 0.1 | –
CCc1cc2ccc(C(C)(C#N)Cc3cccc(N4CCOCC4)c3)cc2[nH]c1=O (stereo not drawn) [Compound 21] | 63.1 | 1 | –
CCc1cc2ccc(C(C)(C#N)Cc3cccc(O)c3)cc2[nH]c1=O (stereo not drawn) [Compound 22] | 50.1 | – | –
CCc1cc2ccc(C(C)(C#N)Cc3cccc(OCc4ccccc4)c3)cc2[nH]c1=O (stereo not drawn) [Compound 23] | 200 | 10 | –
CCc1cc2ccc(C(C)(C#N)Cc3cccc(OCCOC)c3)cc2[nH]c1=O (stereo not drawn) [Compound 24] | 79.4 | 1 | –
CCC(=O)c1cccc(CC(C)(C#N)c2ccc3cc(C)c(=O)[nH]c3c2)c1 (stereo not drawn) [Compound 173] | 1260 | 0.316 | –
CCc1cc2ccc(C(C)(C#N)Cc3cc(C)cc(C#N)c3)cc2[nH]c1=O (stereo not drawn) [Compound 174] | 200 | 0.1 | –
CCc1cc2ccc(C(C)(C#N)Cc3cccc(S(F)(F)(F)(F)F)c3)cc2[nH]c1=O (stereo not drawn) [Compound 177] | 398 | 1 | –
CCc1cc2ccc(C(C)(C#N)Cc3cccc(C4(N)CC4)c3)cc2[nH]c1=O (stereo not drawn) [Compound 180] | 158 | 3.16 | –
CCc1cc2ccc(C(C)(C#N)CCCN(C)C(=O)c3ccc(F)cc3)cc2[nH]c1=O (stereo not drawn) [Compound 188] | 20 | 1 | –
CCc1cc2ccc([C@](C)(C#N)CN(C)Cc3ccc(C#N)cc3)cc2[nH]c1=O [Compound 190] | 251 | 10 | –
Cc1cc2ccc(C(C)(C#N)Cc3cccc(Oc4ncccn4)c3)cc2[nH]c1=O (stereo not drawn) [Compound 191] | 1580 | 0.316 | –
Cc1cc2ccc(C(C)(C#N)Cc3cccc(Oc4ccccc4)n3)cc2[nH]c1=O (stereo not drawn) [Compound 193] | 631 | 0.1 | –
CCc1cc2cc(C)c(C(C)(C#N)Cc3cccc(C#N)n3)cc2[nH]c1=O (stereo not drawn) [Compound 208] | 39.8 | – | –
CCc1cc2ccc(C(C)(C#N)Cc3ccc(Cl)nc3Cl)cc2[nH]c1=O (stereo not drawn) [Compound 212] | 126 | – | –
COc1cc2ccc(C(C)(C#N)Cc3cccc(C#N)n3)cc2[nH]c1=O (stereo not drawn) [Compound 218] | 1000 | 0.316 | –
CCc1cnc(OCCC(C)(C#N)c2ccc3cc(CC)c(=O)[nH]c3c2)nc1 (stereo not drawn) [Compound 222] | 100 | 10 | –
CCc1cc2ccc(C(C)(C#N)CCOc3nccc(OC)n3)cc2[nH]c1=O (stereo not drawn) [Compound 223] | 794 | 1 | –
CCc1cc2ccc(C(C)(C#N)Cc3ccc(OC)nc3Cl)cc2[nH]c1=O (stereo not drawn) [Compound 224] | 200 | 0.316 | –
CCc1cc2ccc(C(C)(C#N)Cc3ccc(Cl)nc3OC)cc2[nH]c1=O (stereo not drawn) [Compound 225] | 126 | 1 | –
CCc1cc2ccc(C(C)(C#N)Cc3cccc(N4CCCC4)n3)cc2[nH]c1=O (stereo not drawn) [Compound 226] | 200 | 3.16 | –
Cc1cc2ccc(C(C)(C#N)Cc3cccc(C#N)n3)cc2[nH]c1=O (stereo not drawn) [Compound 227] | 316 | 1 | –
CCc1cc2ccc(C(C)(C#N)Cc3cc(OC)cc(OC)n3)cc2[nH]c1=O (stereo not drawn) [Compound 232] | 63.1 | 0.1 | –
CCc1cc2ccc(C(C)(C#N)Cc3cc(C#N)cc4c3OCC4)cc2[nH]c1=O (stereo not drawn) [Compound 236] | 31.6 | 0.316 | –
CCc1cc2ccc(C(C)(C#N)Cc3cc4ccccc4nn3)cc2[nH]c1=O (stereo not drawn) [Compound 238] | 251 | 1 | –

Further lines, with some results ahead:

IC50 [2] [nM] | SMILES | minimal effective concentration [1] [µM] | EB1 pLAC [1]
794 | Cc1cc2ccc(C(C)(C#N)C3CCc4c(C#N)cccc43)cc2[nH]c1=O (racemic) [Compound 393] | 10 | –
200 | CCc1cc2ccc([C@@](C)(C#N)CN(C)Cc3ccc(C#N)cc3)cc2[nH]c1=O (single isomer, unassigned) [Compound 253] | 0.1 | –
2510 | CCc1cc2ccc(C(C)(C#N)C3CCc4ccc(Br)cc43)cc2[nH]c1=O (single isomer, unassigned) [Compound 380] | – | 6
1260 | CCc1cc2ccc(C(C)(C#N)C3CCc4ccc(Br)cc43)cc2[nH]c1=O (single isomer, unassigned) [Compound 381] | – | 7
631 | Cc1cc2ccc([C@](C)(C#N)C3CCc4cccnc43)cc2[nH]c1=O (single isomer, unassigned) [Compound 388] | > 10 | –
1000 | CCc1cc2ccc([C@](C)(C#N)[C@H]3CCOc4ccccc43)cc2[nH]c1=O (single isomer, unassigned) [Compound 394] | 3.16 | –
501 | CCc1cc2ccc([C@@](C)(C#N)[C@H]3CCOc4ccccc43)cc2[nH]c1=O (single isomer, unassigned) [Compound 395] | 0.316 | –
158 | CCc1cc2ccc([C@](C)(C#N)C[C@H]3CCc4ccccc4O3)cc2[nH]c1=O (single isomer, unassigned) [Compound 396] | – | –
6310 | Cc1cc2ccc([C@@](C)(C#N)[C@@H]3CCc4cc(Br)ccc43)cc2[nH]c1=O [Compound 240] | > 10 | –
6310 | Cc1cc2ccc([C@@](C)(C#N)[C@H]3CCc4cc(Br)ccc43)cc2[nH]c1=O [Compound 241] | 0.316 | –
7940 | Cc1cc2ccc([C@](C)(C#N)[C@@H]3CCc4cc(Br)ccc43)cc2[nH]c1=O [Compound 242] | 0.1 | –
7940 | Cc1cc2ccc(C(C)(C#N)C3CCc4cc(Br)ccc43)cc2[nH]c1=O (stereo not drawn) [Compound 244] | – | 7
1260 | Cc1cc2ccc(C(C)(C#N)C3CCc4c(Br)cccc43)cc2[nH]c1=O (stereo not drawn) [Compound 248] | 0.316 | –
20 | CCc1cc2ccc(C(C)(C#N)Cc3cc(C)nc(C#N)c3)cc2[nH]c1=O (stereo not drawn) [Compound 328] | – | –
398 | CCc1cc2ccc(C(C)(C#N)Cc3ccnc(F)c3)cc2[nH]c1=O (stereo not drawn) [Compound 330] | – | –
501 | CCc1cc2ccc(C(C)(C#N)CN3CCN(c4ncc(Br)cn4)CC3)cc2[nH]c1=O (stereo not drawn) [Compound 374] | – | –
2000 | Cc1cc2ccc([C@@](C)(C#N)[C@@H]3CCCc4ccccc43)cc2[nH]c1=O [Compound 382] | – | –
316 | CCc1cc2ccc(C(C#N)(CC)Cc3cccc(CN)c3)cc2[nH]c1=O (stereo not drawn) [Compound 390] | – | –
2510 | CCc1cc2ccc(C(C#N)(CC)C3CCc4ccc(OC)cc43)cc2[nH]c1=O (stereo not drawn) [Compound 403] | – | –
5010 | Cc1cc2ccc([C@@](C)(C#N)[C@H]3CCc4ccc(Br)cc43)cc2[nH]c1=O [Compound 405] | – | –
5010 | Cc1cc2ccc([C@](C)(C#N)[C@@H]3CCc4ccc(Br)cc43)cc2[nH]c1=O [Compound 406] | – | –
6310 | Cc1cc2ccc([C@](C)(C#N)[C@H]3CCc4ccc(Br)cc43)cc2[nH]c1=O [Compound 407] | – | –
